Laboratory results published in patent US9040524B2, “Antifungal 5,6-dihydro-4H-pyrrolo[1,2-a][1,4]-benzodiazepines and 6H-pyrrolo[1,2-a][1,4]benzodiazepines substituted with bicycle benzene derivatives” (JANSSEN PHARMACEUTICA NV, priority 2010, dated 2015).

Assays:
Type in all cases: cell-based
Cryptococcus neoformans = test: Antifungal activity in vitro, resazurin growth inhibition screen: Cryptococcus neoformans; details: Cryptococcus neoformans B66663; for IC50: read-out: Inf. F pIC50 (converted)
Experimental: (§1) The standard susceptibility screen was performed in 96-well plates (U-bottom, Greiner Bio-One). Serial dilutions (2-fold or 4-fold) of 20 mM compound stock solutions were made in 100% DMSO, followed by an intermediate dilution step in water. These serial dilutions (10 μl) were then spotted onto test-plates that could be stored in the dark at 4° C. for a maximum period of 2 weeks. An adequate broad dose-range was included with 64 μM as the highest in-test concentration. […] The different fungal species/isolates (Table 3a) were cryopreserved and 1/1000 diluted in medium just prior to use. A standard inoculum of 200 μl containing 10^3 colony-forming unit (cfu) was then added to each well. A positive control (100% growth=fungal culture without antifungal) and a negative control (0% growth=RPMI-MOPS medium) were included on each plate.

Scedosporium prolificans = test: Antifungal activity in vitro, resazurin growth inhibition screen: Scedosporium prolificans; details: Scedosporium prolificans IHEM21157
Experimental: as §1

Scedosporium apiospermum = test: Antifungal activity in vitro, resazurin growth inhibition screen: Scedosporium apiospermum; details: Scedosporium apiospermum IHEM3817
Experimental: as §1

Sporothrix schenkii = test: Antifungal activity in vitro, resazurin growth inhibition screen: Sporothrix schenkii; details: Sporothrix schenkii B62482; for IC50: read-out: Inf. A pIC50 (converted)
Experimental: as §1

[1] = test system: Trichophyton mentagrophytes; test: Antifungal activity in vitro, resazurin growth inhibition screen: Trichophyton mentagrophytes; details: Trichophyton mentagrophytes B70554; for IC50: read-out: Inf. G pIC50 (converted)
Experimental: as §1

Aspergillus fumigatus = test: Antifungal activity in vitro, resazurin growth inhibition screen: Aspergillus fumigatus; details: Aspergillus fumigatus B42928; for IC50: read-out: Inf. E pIC50 (converted)
Experimental: as §1

Microsporum canis = test: Antifungal activity in vitro, resazurin growth inhibition screen: Microsporum canis; details: Microsporum canis B68128; for IC50: read-out: Inf. B pIC50 (converted)
Experimental: as §1

Candida parapsilosis = test: Antifungal activity in vitro, resazurin growth inhibition screen: Candida parapsilosis; details: Candida parapsilosis B66126; for IC50: Lodderomyces parapsilosis, read-out: Inf. D pIC50 (converted)
Experimental: as §1

Rhizopus oryzae = test: Antifungal activity in vitro, resazurin growth inhibition screen: Rhizopus oryzae; details: Rhizopus oryzae IHEM5223
Experimental: as §1

Trichophyton rubrum = test: Antifungal activity in vitro, resazurin growth inhibition screen: Trichophyton rubrum; details: Trichophyton rubrum B68183; for IC50: read-out: Inf. C pIC50 (converted)
Experimental: as §1

Rhizomucor miehei = test: Antifungal activity in vitro, resazurin growth inhibition screen: Rhizomucor miehei; details: Rhizomucor miehei IHEM13391
Experimental: as §1

Row | Structure (SMILES) | Inf. F pIC50 (Cryptococcus neoformans) | Inf. A pIC50 (Sporothrix schenkii) | Inf. G pIC50 [1] | Inf. E pIC50 (Aspergillus fumigatus) | Inf. B pIC50 (Microsporum canis) | Inf. D pIC50 (Candida parapsilosis) | Inf. C pIC50 (Trichophyton rubrum) | IC50 (Cryptococcus neoformans) | IC50 (Sporothrix schenkii) | IC50 [1] | IC50 (Aspergillus fumigatus) | IC50 (Microsporum canis) | IC50 (Candida parapsilosis) | IC50 (Trichophyton rubrum) | further results
1 | Br.Clc1cccc2c1CNC(c1ccc3c(c1)CCC3)c1cccn1-2 (centres unmarked) [Compound 13, 7-chloro-4-(2,3-dihydro-1H-inden-5-yl)-5,6-dihydro-4H-pyrrolo[1,2-a][1,4]benzo-diazepine .HBr] | 5.30 | 5.15 | 6.95 | 5.70 | 6.36 | 5.52 | 6.47 | – | – | – | – | – | – | – | Inf. I pIC50 (Scedosporium prolificans): 5.72; Inf. H pIC50 (Scedosporium apiospermum): 4.52; Inf. J pIC50 (Rhizopus oryzae): <4.19; Inf. K pIC50 (Rhizomucor miehei): <4.19
2 | Clc1cc(Cl)c2c(c1)-n1cccc1C(c1ccc3c(c1)CCC3)=NC2 [Compound 23, 7,9-dichloro-4-(2,3-dihydro-1H-inden-5-yl)-6H-pyrrolo[1,2-a][1,4]benzodiazepine] | – | – | – | – | – | – | – | 457 nM | 33900 nM | 794 nM | 912 nM | 1000 nM | 2000 nM | 676 nM | IC50 (Scedosporium prolificans; Lomentospora prolificans, read-out: Inf. I pIC50 (converted)): 603 nM; IC50 (Scedosporium apiospermum; read-out: Inf. H pIC50 (converted)): 24000 nM; IC50 (Rhizopus oryzae; Rhizopus arrhizus, read-out: Inf. J pIC50 (converted)): > 64600 nM; IC50 (Rhizomucor miehei; read-out: Inf. K pIC50 (converted)): > 64600 nM
3 | Cl.O=C1CCc2ccc(C3NCc4c(Cl)cccc4-n4cccc43)cc21 (centres unmarked) [Compound 52, 6-(7-chloro-5,6-dihydro-4H-pyrrolo[1,2-a][1,4]benzodiazepin-4-yl)-2,3-dihydro-1H-inden-1-one .HCl] | <4.19 | <4.19 | 4.31 | <4.19 | <4.80 | <4.19 | 4.55 | – | – | – | – | – | – | – | –
4 | Cl.Fc1cccc2c1CNC(c1ccc3c(c1)CCC(F)(F)O3)c1cccn1-2 (centres unmarked) [Compound 53, 4-(2,2-difluoro-3,4-dihydro-2H-1-benzopyran-6-yl)-7-fluoro-5,6-dihydro-4H-pyrrolo[1,2-a][1,4]benzodiazepine .HCl] | 4.87 | <4.19 | 4.49 | 4.97 | 4.49 | <4.19 | 4.50 | – | – | – | – | – | – | – | –
5 | Cl.Fc1cc(F)c2c(c1)-n1cccc1C(c1ccc3c(c1)CCC(F)(F)O3)NC2 (centres unmarked) [Compound 54, 4-(2,2-difluoro-3,4-dihydro-2H-1-benzopyran-6-yl)-7,9-difluoro-5,6-dihydro-4H-pyrrolo[1,2-a][1,4]benzodiazepine .HCl] | 5.11 | <4.19 | 4.49 | <4.19 | 5.09 | <4.19 | 5.10 | – | – | – | – | – | – | – | –
6 | O=C1CCc2cc(C3=NCc4cccc(Cl)c4-n4cccc43)ccc21 [Compound 57, 5-(10-chloro-6H-pyrrolo[1,2-a][1,4]benzodiazepin-4-yl)-2,3-dihydro-1H-inden-1-one] | – | – | – | – | – | – | – | 5890 nM | 2240 nM | 3980 nM | 2400 nM | 2000 nM | > 64600 nM | 1580 nM | –
7 | O=C1CCCc2cc(C3=NCc4cccc(Cl)c4-n4cccc43)ccc21 [Compound 61, 6-(10-chloro-6H-pyrrolo[1,2-a][1,4]benzodiazepin-4-yl)-3,4-dihydro-1 (2H)-naphthalenone] | – | – | – | – | – | – | – | 8130 nM | 31600 nM | > 64600 nM | 32400 nM | > 64600 nM | 4370 nM | 49000 nM | –
8 | FC1(F)CCc2cc(C3=NCc4c(Cl)cccc4-n4cccc43)ccc21 [Compound 66, 7-chloro-4-(1,1-difluoro-2,3-dihydro-1H-inden-5-yl)-6H-pyrrolo[1,2-a][1,4]benzo-diazepine] | 6.11 | 4.46 | <4.19 | 5.09 | 4.49 | 5.55 | <4.19 | – | – | – | – | – | – | – | –
9 | FC1(F)CCc2cc(C3=NCc4ccc(Cl)cc4-n4cccc43)ccc21 [Compound 67, 9-chloro-4-(1,1-difluoro-2,3-dihydro-1H-inden-5-yl)-6H-pyrrolo[1,2-a][1,4]benzo-diazepine] | 5.36 | 5.10 | 5.09 | 5.10 | 5.09 | 5.90 | <4.19 | – | – | – | – | – | – | – | –
10 | FC1(F)CCc2cc(C3=NCc4cccc(Cl)c4-n4cccc43)ccc21 [Compound 68, 10-chloro-4-(1,1-difluoro-2,3-dihydro-1H-inden-5-yl)-6H-pyrrolo[1,2-a][1,4]benzo-diazepine] | <4.19 | <4.19 | <4.19 | 4.19 | <4.19 | <4.19 | <4.19 | – | – | – | – | – | – | – | –
11 | FC1(F)CCc2cc(C3=NCc4ccc(Cl)cc4-n4cccc43)ccc2O1 [Compound 71, 9-chloro-4-(2,2-difluoro-3,4-dihydro-2H-1-benzopyran-6-yl)-6H-pyrrolo[1,2-a]-[1,4]benzodiazepine] | – | – | – | – | – | – | – | 100 nM | 1950 nM | 309 nM | 219 nM | 617 nM | 8130 nM | 269 nM | –
12 | FC1(F)CCc2cc(C3=NCc4cccc(Cl)c4-n4cccc43)ccc2O1 [Compound 72, 10-chloro-4-(2,2-difluoro-3,4-dihydro-2H-1-benzopyran-6-yl)-6H-pyrrolo[1,2-a]-[1,4]benzodiazepine] | – | – | – | – | – | – | – | 380 nM | 2630 nM | 1620 nM | 617 nM | 407 nM | 11000 nM | 407 nM | –
13 | Fc1cc(F)c2c(c1)-n1cccc1C(c1ccc3c(c1)CCC(F)(F)O3)=NC2 [Compound 73, 4-(2,2-difluoro-3,4-dihydro-2H-1-benzopyran-6-yl)-7,9-difluoro-6H-pyrrolo[1,2-a]-[1,4]benzodiazepine] | – | – | – | – | – | – | – | 4680 nM | 31600 nM | 32400 nM | > 64600 nM | 9330 nM | 2140 nM | 32400 nM | –
14 | CN1CCc2cc(C3=NCc4c(F)cccc4-n4cccc43)ccc21 [Compound 81, 4-(2,3-dihydro-1-methyl-1H-indol-5-yl)-7-fluoro-6H-pyrrolo[1,2-a][1,4]benzo-diazepine] | 5.29 | 4.49 | 4.90 | 4.39 | 5.28 | 4.60 | 5.65 | – | – | – | – | – | – | – | –
15 | Clc1cccc2c1-n1cccc1C(c1ccc3c(c1)CCOC3)=NC2 [Compound 82, 10-chloro-4-(3,4-dihydro-1H-2-benzopyran-6-yl)-6H-pyrrolo[1,2-a][1,4]benzo-diazepine] | 5.26 | 5.06 | 5.56 | 5.56 | 5.69 | 4.77 | 5.95 | – | – | – | – | – | – | – | –
